Where no end group is shown, it is not given here.
Columns and labels:
[1] = test system: transgenic 2D2 CD4+ T cells; assay: 2D2 T cell proliferation (proliferation dye dilution) in DC co-culture; assay type: cell-based, mouse; details: DCs treated with CpG; 17 or 52 peptides per QD; 72 hours
Protocol: Stained cells were analyzed by flow cytometry.

[2] = test system: experimental autoimmune encephalomyelitis (EAE); assay: EAE induction, MOG-QD treatment and monitoring; assay type: in vivo, C57BL/6 mice; details: single s.c. injection day 2, through day 21
Protocol: C57BL/6 mice (female, 10-12 weeks) were induced with EAE following a defined protocol from Hooke Labs. Briefly, mice were injected s.c. with an emulsion of MOG and complete Freund's adjuvant (CFA) at the upper and lower back on day 0. Pertussis toxin was also administered intraperitoneally 2 and 24 hours after MOG/CFA injection. Beginning at day 7, mice were weighed to detect changes from day 0 body weight (a symptom of disease) and scored for disease severity with respect to paralysis. A standard clinical scoring rubric was used: 0—no symptoms, 1—limp tail, 2—weakness of hind legs, 3—hind limb paralysis, 4—hind limb paralysis and partial front limb paralysis, 5—moribund.^[6, 7, 15]
Mice induced with EAE were randomly divided into groups of 8-10 mice each. A control group was left untreated in each experiment. In one experiment, additional groups were treated by s.c. injection at the tailbase with 0.2 nanomoles QDs, 70 μg MOG, 70 μg CTRL peptide on 0.2 nanomoles QDs (100:1), or 70 μg MOG peptide on 0.2 nanomoles QDs (100:1). Similar experiments contained two treatment groups: 14.3 μg MOG on 0.4 nanomoles QDs (17:1) or 73 μg MOG on 0.2 nanomoles QDs (52:1). The final experiment design contained three treatment groups: 70 μg MOG on 0.5 nanomoles QDs (25:1), 70 μg MOG on 0.4 nanomoles QDs (52:1), or 70 μg MOG on 0.3 nanomoles QDs (65:1).

Sequence	2D2 T cell proliferation [1]	disease progression (clinical score) ([2]; 100:1, 70 μg peptide on 0.2 nanomoles QDs or component controls)	disease incidence ([2]; 100:1 or component controls)
HHHHHSAAAAAGISQAVHAAHAEINEAGR (not fully specified) [free CTRL peptide]	neither CTRL-QDs nor free CTRL peptide caused proliferation	–	–
HHHHHSAAAAAGMEVGWYRSPFSRVVHLYRNGK [free MOG]	equivalent	none of the groups except MOG-QDs caused significant differences in clinical scores	no differences in disease incidence
